Key:
PC-3 = assay: Cytotoxicity of drug-conjugated NT4, MTT growth inhibition; type: cell-based, human
Method: (§1) Cells were grown without changing the medium for days. Growth inhibition was assessed by 3-(4,5-dimethylthiazol-2-yl)-2,5-diphenyltetrazolium bromide. EC50 values were calculated by non-linear regression analysis using GraphPaD prism 3.02 software.

HT29 tumors = assay: Tumor growth reduction in mice; type: in vivo, CD-1 female nude mice; conditions: given six times, dose of 3 μg/kg, time-frame of 10 days
Method: In details, CD-1 female nude mice (Charles River Laboratories, Inc.), 5 to 6 weeks of age (mean weight, 20 g), were injected s.c. in the right flank with 1×10^6 HT29 cells. When tumors reached a diameter of 3 to 4 mm (5 days after tumor inoculation) mice were randomly divided into groups (four mice per group) and repeatedly injected in the tail vein (0, 30, 70, 140, 190, 240 hours post first injection) with 500 μL of the following solutions in 0.9% NaCl: (a) 1 mg/mL NT(1-13)4-5FdU (3.05 μmol/kg); (b) 30 μg/mL 5FdU (3.05 μmol/kg); and (c) 0.9% NaCl.
Tumor volumes were measured daily with a caliper using the following formula: volume=length*width2*π/6. 21 days after tumor inoculation, ie 6 days after the last treatment, mice were sacrificed, tumors, removed and weighted. […] Statistical analysis was done using Student's t test (p<0.05).

[1] = test system: colon tumors and healthy tissues from the same patient; assay: Binding of fluorophore-conjugated NT4 to human tumor surgical samples versus healthy tissue, confocal fluorescence; conditions: any tissue sample (colon and pancreas)
Method: Each step was followed by washing with TBS. […] Each step was followed by washing with TBS. […] Analogue monomeric peptides were assayed for comparison. […] All images were processed using the ImageJ software (NIH).

HT-29 = assay: Cytotoxicity of drug-conjugated NT4, MTT growth inhibition; type: cell-based, human; conditions: HT29, best EC50 values, 0.15 to 30 μmol/L
Method: as §1

[2] = Classification of functionalized branched peptides as fast or slow/non releasing; conditions: ability to release the functional unit from the carrier peptide
[3] = test system: HT-29, PANC-1 and PC-3 tumor cell lines; assay: Cytotoxicity of drug-conjugated NT4, statements on the three cell lines together; type: cell-based, human
Method: Cells were grown without changing the medium for days.
5-FdU, Monastrol and CBTST were fast released from the adducts. […] The additional washing was performed in order to avoid free drug to diffuse inside the cells during the following six days.

[4] = compared to NT

O=c1[nH]c(=O)n([C@H]2C[C@H](O)[C@@H](CO)O2)cc1F [5-FdU, 5-fluoro-2′-deoxyuridine]
sensitivity of PC-3 cells to the drug (PC-3): not affected | inhibition of tumor growth (HT29 tumors): 10%

O=C(O)CCCc1ccc(N(CCCl)CCCl)cc1 [CLB, chlorarnbucil]
sensitivity of PC-3 cells to the drug (PC-3): not affected

CN(Cc1cnc2nc(N)nc(N)c2n1)c1ccc(C(=O)N[C@@H](CCC(=O)O)C(=O)O)cc1 [MTX, methotrexate]
sensitivity of PC-3 cells to the drug (PC-3): not affected

NT4-peg-Biotin
IC50 values (NT receptor; compared to that of NT4): comparable

NT(1-13)4
binding to tissue sample compared to NT(8-13)4 [1]: identical

NT(8-13)4-beta-Ala-Biotin
binding activity to NT receptor (NT receptor; compared to NT(8-13)4): loose binding activity

NT(8-13)4-betaAla-K(PEG-Chlorambucil) [NT4(8-13)-CLB]
EC50 (HT-29): 1.9 µM | releasing class of the adduct [2]: slow releasing

NT(8-13)-betaAla-K(PEG-5-fluorodeoxyuridine) [NT4(8-13)-5-FdU]
EC50 (HT-29): 0.33 µM

NT(8-13)-betaAla-K(PEG-6-mercaptopurine) [NT4(8-13)-6-MP]
activity compared to the parent free drug [3]: no improvement

NT(8-13)-betaAla-K(PEG-Monastrol) [NT4(8-13)-Mon]
activity compared to the parent free drug [3]: no improvement

NT(8-13)-betaAla-K(PEG-Tirapazamine) [NT4(8-13)-TPZ]
EC50 (PC-3; PC3, best EC50 values, 0.15 to 30 μmol/L, MTT): 0.14 µM | releasing class of the adduct [2]: slow releasing

QHWSYGLRPG [LHRH]
in vitro binding profiles [4]: lower
